Results taken from BigSolDB 2.1.

Cc1ccc(-c2ccccc2C#N)cc1
solubility (mole fraction)
Settings | 268.05 K | 272.97 K | 278.05 K | 283.15 K | 288.15 K | 293.15 K | 298.13 K | 303.05 K
in ethanol | 0.0142 | 0.0159 | 0.0168 | 0.0205 | 0.0284 | 0.041 | 0.0604 | 0.0958
in ethyl acetate | 0.163 | 0.196 | 0.237 | 0.284 | 0.341 | 0.412 | 0.482 | 0.569
